Holding throughout (assay type): functional
Test [1] relates to Paramphistomum. As to the kind of experiment: Antihelmintic activity against rumen flukes assessed as mortality at 40 ug/ml after 1 hr relative to control.
Test [2] concerns Paramphistomum. In words: Antihelmintic activity against rumen flukes assessed as mortality at 40 ug/ml after 2 hrs relative to control.
The test system of test [3] is Paramphistomum. As to the kind of experiment: Antihelmintic activity against rumen flukes assessed as mortality at 40 ug/ml after 4 hrs relative to control.
For test [4], the system named is Paramphistomum. As to the kind of experiment: Antihelmintic activity against rumen flukes assessed as mortality at 40 ug/ml after 6 hrs relative to control.
Test [5] deals with Paramphistomum. As to the kind of experiment: Antihelmintic activity against rumen flukes assessed as mortality at 80 ug/ml after 1 hr relative to control.
Test [6] deals with Paramphistomum. As to the kind of experiment: Antihelmintic activity against rumen flukes assessed as mortality at 80 ug/ml after 2 hrs relative to control.
Test [7] has as its system Paramphistomum. As to the kind of experiment: Antihelmintic activity against rumen flukes assessed as mortality at 80 ug/ml after 4 hrs relative to control.
The test system of test [8] is Paramphistomum. In words: Antihelmintic activity against rumen flukes assessed as mortality at 80 ug/ml after 6 hrs relative to control.

SMILES strings stand for the structures.

Turning to `COC(=O)Nc1nc2ccc(OCC(=O)N/N=C/c3ccc(Cl)cc3)cc2s1` (mixture of isomers), the mortality at 40 µg/mL came to 0% in the test on Paramphistomum [1], 0% with Paramphistomum [2], 10% in the test on Paramphistomum [3] and 20% with Paramphistomum [4]. Further, the mortality at 80 µg/mL with Paramphistomum [5] came out at 20%; in the test on Paramphistomum [6], 30%; in the test on Paramphistomum [7], 50%; in the test on Paramphistomum [8] it was 60%.
`COC(=O)Nc1nc2ccc(OCC(=O)N/N=C(\C)c3ccccc3)cc2s1` (mixture of isomers): the mortality at 40 µg/mL came to 10% in the test with Paramphistomum [1], 10% in the test with Paramphistomum [2], 10% in the test with Paramphistomum [3] and 20% with Paramphistomum [4]. The mortality at 80 µg/mL was 20% in the test on Paramphistomum [5], 20% in the test with Paramphistomum [6], 20% in the test on Paramphistomum [7] and 30% with Paramphistomum [8].
For the molecule `CC(=O)Nc1nc2ccc(OCC3=NN(C(C)=O)C(c4ccccc4)O3)cc2s1` (stereo not given), the mortality at 40 µg/mL in the test on Paramphistomum [1], in the test with Paramphistomum [2], in the test with Paramphistomum [3] and in the test on Paramphistomum [4] was 0% throughout. The mortality at 80 µg/mL in the test on Paramphistomum [5] came out at 0%; in the test on Paramphistomum [6], 0%; in the test on Paramphistomum [7], 10%; with Paramphistomum [8] it was 10%.
Turning to `CC(=O)Nc1nc2ccc(OCC3=NN(C(C)=O)C(c4ccc(Cl)cc4)O3)cc2s1` (stereo not given), the mortality at 40 µg/mL with Paramphistomum [1] was determined as 20%; in the test on Paramphistomum [2] it was 40%; in the test with Paramphistomum [3] it was 50%; in the test on Paramphistomum [4] it was 60%. Also, the mortality at 80 µg/mL in the test with Paramphistomum [5] was found to be 20%; in the test with Paramphistomum [6], 50%; in the test on Paramphistomum [7] it was 80%; in the test with Paramphistomum [8], 100%.
`COC(=O)Nc1nc2ccc(OCC(=O)NNS(=O)(=O)c3ccccc3)cc2s1`: the mortality at 40 µg/mL in the test with Paramphistomum [1] worked out at 10%; with Paramphistomum [2], 10%; in the test on Paramphistomum [3], 20%; with Paramphistomum [4], 30%. Moreover, the mortality at 80 µg/mL amounted to 20% in the test on Paramphistomum [5], 30% in the test with Paramphistomum [6], 40% in the test with Paramphistomum [7] and 50% with Paramphistomum [8].
As to `COC(=O)Nc1nc2ccc(OCC(=O)N/N=C(\C)c3ccc(C)cc3)cc2s1` (mixture of isomers), the mortality at 40 µg/mL with Paramphistomum [1], in the test on Paramphistomum [2], in the test on Paramphistomum [3] and in the test with Paramphistomum [4] was 10% throughout. Moreover, the mortality at 80 µg/mL in the test with Paramphistomum [5], in the test on Paramphistomum [6], with Paramphistomum [7] and in the test on Paramphistomum [8] was 20% each time.
As for `CC(=O)Nc1nc2ccc(OCC3=NN(C(C)=O)C(c4ccc([N+](=O)[O-])cc4)O3)cc2s1` (stereo not given), the mortality at 40 µg/mL in the test with Paramphistomum [1] was 10%; in the test on Paramphistomum [2], 30%; in the test on Paramphistomum [3] it was 40%; in the test on Paramphistomum [4], 70%. In addition, the mortality at 80 µg/mL with Paramphistomum [5] came out at 20%; with Paramphistomum [6], 50%; with Paramphistomum [7], 70%; in the test on Paramphistomum [8], 100%.
For `COC(=O)Nc1nc2ccc(OCC(=O)NNS(=O)(=O)c3ccc(C)cc3)cc2s1`, the mortality at 40 µg/mL stood at 10% in the test with Paramphistomum [1], 10% in the test on Paramphistomum [2], 20% in the test on Paramphistomum [3] and 30% in the test with Paramphistomum [4]. Besides, the mortality at 80 µg/mL in the test on Paramphistomum [5] was found to be 20%; in the test with Paramphistomum [6] it was 20%; in the test with Paramphistomum [7], 30%; in the test with Paramphistomum [8], 40%.
As to `COC(=O)Nc1nc2ccc(OCC(=O)N/N=C/c3ccccc3OC(=O)OC)cc2s1` (mixture of isomers), the mortality at 40 µg/mL in the test on Paramphistomum [1], with Paramphistomum [2], in the test on Paramphistomum [3] and in the test on Paramphistomum [4] was 10% each time. In addition, the mortality at 80 µg/mL with Paramphistomum [5] came out at 10%; in the test with Paramphistomum [6], 20%; with Paramphistomum [7], 20%; with Paramphistomum [8] it was 20%.
As for `COC(=O)NNC(=O)COc1ccc2nc(NC(=O)OC)sc2c1`, the mortality at 40 µg/mL in the test on Paramphistomum [1] is 10%; with Paramphistomum [2], 20%; in the test with Paramphistomum [3], 30%; in the test with Paramphistomum [4], 40%. Also, the mortality at 80 µg/mL amounted to 30% with Paramphistomum [5], 40% with Paramphistomum [6], 70% in the test on Paramphistomum [7] and 80% in the test with Paramphistomum [8].
As for `COC(=O)Nc1nc2ccc(OCC(=O)N/N=C/c3ccc([N+](=O)[O-])cc3)cc2s1` (mixture of isomers), the mortality at 40 µg/mL with Paramphistomum [1], with Paramphistomum [2], with Paramphistomum [3] and in the test with Paramphistomum [4] was 10% throughout. The mortality at 80 µg/mL with Paramphistomum [5], with Paramphistomum [6], in the test on Paramphistomum [7] and in the test with Paramphistomum [8] was 20% in each case.
For `COC(=O)Nc1nc2ccc(OCC(=O)N/N=C/c3ccco3)cc2s1`, the mortality at 40 µg/mL in the test with Paramphistomum [1] amounted to 10%; in the test with Paramphistomum [2], 20%; with Paramphistomum [3], 30%; in the test on Paramphistomum [4] it was 40%. Further, the mortality at 80 µg/mL in the test on Paramphistomum [5] is 30%; in the test with Paramphistomum [6] it was 40%; with Paramphistomum [7] it was 60%; in the test on Paramphistomum [8] it was 70%.
`COC(=O)Nc1nc2ccc(OCC(=O)N/N=C(\C)c3ccc(Br)cc3)cc2s1` (mixture of isomers): the mortality at 40 µg/mL in the test with Paramphistomum [1], in the test on Paramphistomum [2], in the test with Paramphistomum [3] and with Paramphistomum [4] was 10% in each case. Also, the mortality at 80 µg/mL in the test with Paramphistomum [5] was 20%; in the test with Paramphistomum [6], 20%; with Paramphistomum [7], 30%; in the test on Paramphistomum [8], 30%.
On to `COC(=O)Nc1nc2ccc(OCC(=O)N/N=C(\C)c3ccc(Cl)cc3)cc2s1` (mixture of isomers), for which the mortality at 40 µg/mL stood at 10% in the test on Paramphistomum [1], 10% with Paramphistomum [2], 30% with Paramphistomum [3] and 40% with Paramphistomum [4]. Further, the mortality at 80 µg/mL in the test on Paramphistomum [5] amounted to 30%; with Paramphistomum [6], 40%; in the test on Paramphistomum [7], 50%; in the test on Paramphistomum [8], 70%.
For the molecule `O=C(Nc1cc(Cl)cc(Cl)c1O)c1c(O)c(Cl)cc(Cl)c1Cl` [OXYCLOZANIDE], the mortality at 40 µg/mL with Paramphistomum [1] came to 30%; in the test on Paramphistomum [2], 70%; with Paramphistomum [3], 100%. Moreover, the mortality at 80 µg/mL was 50% in the test on Paramphistomum [5] and 100% in the test on Paramphistomum [6].
Regarding `COC(=O)Nc1nc2ccc(OCC(=O)N/N=C/c3ccccc3)cc2s1` (mixture of isomers), the mortality at 40 µg/mL in the test on Paramphistomum [1] is 10%; with Paramphistomum [2], 10%; in the test with Paramphistomum [3] it was 10%; in the test on Paramphistomum [4] it was 20%. Also, the mortality at 80 µg/mL in the test on Paramphistomum [5] stood at 10%; with Paramphistomum [6] it was 20%; in the test with Paramphistomum [7], 20%; with Paramphistomum [8] it was 40%.

The values are drawn from ChEMBL document CHEMBL3739361, “Design, facile synthesis and anthelmintic activity of new O-substituted 6-methoxybenzothiazole-2-carbamates” (2015).
